“Also recorded” adds a separate entry of the source.
Test system: chicken dorsal root ganglion neurons
Test: neurite outgrowth in primary chicken dorsal root ganglion neurons
Format: cell-based
Conditions: E8 and E15 DRG neurons, 12 to 24 hours; compound 1a 10 μM, NGF 20 ng/ml; GAP-43 staining
Method: Dorsal root ganglion neurons comprise of an axon with two branches and are a good model for neuronal differentiation. Embryonic day 8 and 15 chicken dorsal root ganglions were examined for immunochemical staining with GAP43 after incubation with NGF 20 ng/ml and compound 1a (ENDF1) 10 μM to analyze whether compound 1a alone or in combination with the nerve growth factor enhances neurite outgrowth and branching.
Embryonic day (E) 8 and E15 chicken Dorsal Root Ganglions (DRGs) were prepared as described in: Aigner, 1993; Aigner, 1995. Briefly, foetuses were taken out of the egg, decapitated and the DRGs were targeted from the ventral side. The 10 lumbar region DRGs per foetus were dissected, and a total of 100 DRGs were collected in 10 ml DPBS in a 15 ml Falcon tube. DRGs were centrifuged 120×g for 3 min and then enzymatically treated with 1 ml trypsin 0.5 mg/ml+EDTA 0.22 mg/ml (PAA, Pasching, Austria) for 15 min. Then, 9 ml of DMEM 10% FCS were added to inactivate the trypsin and DRGs were centrifuged 120×g for 5 min. DRGs were resuspended and washed with 5 ml of DMEM 10% FCS, pipetted up and down to dissociate them, centrifuged, resuspended in 5 ml of DMEM 10% FCS and transferred into a 60 mm diameter cell culture dish. […]

COc1cc2c(c(O)c1C(=O)/C=C/c1ccc(O)cc1)C=CC(C)(C)O2 [Compound 1a, (E)-1-(5-hydroxy-7-methoxy-2,2-dimethyl-2H-chromen-6-yl)-3-(4-hydroxyphenyl)prop-2-en-1-one]
neurite extension: strongly promote neurite extension; also recorded: promotes neurite extension to a similar degree as NGF; also recorded: almost in the range of NGF

From patent US9956199B2, “Chromane-like cyclic prenylflavonoids for the medical intervention in neurological disorders” (priority 2011, dated 2018)
